Assay [1] concerns IL-6. Nature of the assay: In vivo inhibition assay of IL-6. Further details: species or system C57BL/6 female mice. Particulars: Mus musculus, ip; mice, test compound 1 mg/kg by gavage, 25 µg R848 intraperitoneally 1 h later, serum IL-6 2 h later; read-out: IL-6 inhibition rate (intraperitoneal injection after 1 h). The method, then:
In vivo inhibition assay of IL-6
Experimental materials: Preparation of compound solutions: R848 was prepared with pure water (sterilized), with a final concentration of 25 µg/100 µL; the test compound was prepared with sodium citrate buffer at pH = 3, with a final concentration of 0.1 mg/mL.
Experimental animals: C57BL/6 female mice were purchased from GemPharmatech, aged 6-8 weeks.
Experimental methods: C57BL/6 female mice were randomly divided into a blank group, control group, and experimental group, with 8 in each group.
Blank group: Blood was collected from the mice after 12 h of fasting.
Control group: The mice were administered sodium citrate buffer at pH = 3 by gavage after 12 hours of fasting, and the remaining procedures were consistent with those of the experimental group.
Experimental group: After fasting for 12 h, the mice were administered with the test compound (1 mg/kg) by gavage, followed by an intraperitoneal injection of 25 µg R848 (purchased from MCE) 1 h later; 2 h later, the eyeballs were removed for blood collection, the serum was allowed to stand at room temperature for 30 min, then centrifuged for 10 min (3000 rpm), the supernatant was collected, and the serum IL-6 concentration was measured using an IL-6 ELISA kit. The IL-6 inhibition rate was calculated based on the serum IL-6 concentrations of the control and experimental groups. Calculation formula: inhibition rate = (C2-C3)/(C2-C1)×100%. • C1: serum IL-6 concentration of the blank group; • C2: serum IL-6 concentration of the control group; • C3: serum IL-6 concentration of the experimental group.
Four additional groups of experiments were performed separately according to the above experimental procedures, and the differences between these four groups and the above experiment were respectively: "25 µg R848 (purchased from MCE) was intraperitoneally injected after 4 h", "25 µg R848 (purchased from MCE) was intraperitoneally injected after 8 h", "25 µg R848 (purchased from MCE) was intraperitoneally injected after 16 h", and "25 µg R848 (purchased from MCE) was intraperitoneally injected after 24 h". Table 2: In vivo inhibition assay of IL-6

Assay [2] addresses T1, HEK-Blue-hTLR7 cells (Homo sapiens, UniProt Q9NYK1).
T1 construct: expressed in transfected cells; host or cells: HEK-Blue-hTLR7 cells (HEK293-derived reporter line)
T1 sequence (Q9NYK1 27-1049): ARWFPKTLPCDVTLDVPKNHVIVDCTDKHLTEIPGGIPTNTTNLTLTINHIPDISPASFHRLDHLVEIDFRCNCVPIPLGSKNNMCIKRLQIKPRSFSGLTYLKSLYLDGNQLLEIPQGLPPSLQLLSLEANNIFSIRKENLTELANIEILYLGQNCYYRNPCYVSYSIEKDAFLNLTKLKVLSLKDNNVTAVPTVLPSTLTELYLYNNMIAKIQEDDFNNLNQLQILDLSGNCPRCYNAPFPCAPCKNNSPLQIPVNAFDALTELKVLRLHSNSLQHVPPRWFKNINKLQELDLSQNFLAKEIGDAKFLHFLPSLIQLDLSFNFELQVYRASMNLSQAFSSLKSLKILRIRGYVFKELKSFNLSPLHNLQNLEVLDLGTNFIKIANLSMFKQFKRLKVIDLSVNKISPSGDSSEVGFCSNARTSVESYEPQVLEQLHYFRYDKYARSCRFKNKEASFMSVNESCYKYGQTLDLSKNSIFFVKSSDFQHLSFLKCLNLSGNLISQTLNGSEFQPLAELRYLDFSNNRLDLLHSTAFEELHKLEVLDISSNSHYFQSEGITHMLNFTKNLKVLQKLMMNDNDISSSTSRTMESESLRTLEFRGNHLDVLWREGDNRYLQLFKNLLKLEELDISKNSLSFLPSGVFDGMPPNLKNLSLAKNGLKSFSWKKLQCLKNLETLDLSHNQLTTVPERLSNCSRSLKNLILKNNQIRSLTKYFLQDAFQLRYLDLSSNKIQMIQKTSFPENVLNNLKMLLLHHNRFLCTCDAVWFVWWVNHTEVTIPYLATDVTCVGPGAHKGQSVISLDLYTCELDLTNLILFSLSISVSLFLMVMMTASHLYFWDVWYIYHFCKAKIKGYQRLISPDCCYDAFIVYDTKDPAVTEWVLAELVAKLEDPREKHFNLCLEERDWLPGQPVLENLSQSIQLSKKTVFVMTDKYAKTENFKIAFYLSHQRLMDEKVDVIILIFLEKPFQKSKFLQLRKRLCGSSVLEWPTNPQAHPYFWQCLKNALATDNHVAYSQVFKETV
Nature of the assay: HEK-Blue-hTLR7 cell inhibition assay. The conditions noted are these: R848 0.8 µM, 16 h, OD 620 nm, read-out: TLR7 IC50. In kind it is cell-based. The method, boiled down: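 Cells were pre-incubated 4 h, then co-treated 16 h at 37 °C with compound (10 doses, 0.5–10000 nM final) plus R848 (0.8 µM for TLR7, 3 µM for TLR8) or ODN2006 (1 µM, TLR9). Reporter OD620 gave inhibition relative to DMSO blank and agonist-only controls; IC50 came from curve fitting.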

The source of these data is patent EP4806891A1 (Kangbaida (Sichuan) Biotechnology Co., Ltd., priority 2023, dated 2025).

Molecules are shown by their SMILES.

Usually inhibition stands for the share of the control response that was lost under treatment. By IC50 is commonly meant the concentration at which inhibition is half-maximal. Turning to `CN1CC(Cc2nnc([C@]34CN(c5ccc(C#N)n6ncc(F)c56)C[C@@]3(C(F)(F)F)C4)o2)C1` [Compound 30, 3-fluoro-4-((1S,5R)-1-(5-((1-methylazetidin-3-yl)methyl)-1,3,4-oxadiazol-2-yl)-5-(trifluoromethyl)-3-azabicyclo[3.1.0]hexan-3-yl)pyrazolo[1,5-a]pyridine-7-carbonitrile], in assay [1], the inhibition at 1 mg/kg was > 90%. For the same compound, the IC50 in assay [2] is < 100 nM.
On the same counts, the results for `CN1CCC(c2nnc([C@]34CN(c5ccc(C#N)n6ncc(F)c56)C[C@@]3(C(F)(F)F)C4)o2)CC1` [Compound 57, 3-fluoro-4-((1S,5R)-1-(5-(1-methylpiperidin-4-yl)-1,3,4-oxadiazol-2-yl)-5-(trifluoromethyl)-3-azabicyclo[3.1.0]hexan-3-yl)pyrazolo[1,5-a]pyridine-7-carbonitrile] are > 90% and < 100 nM.
The like results for `CN1CCC(c2nnc([C@]34CN(c5ccc(C#N)n6nccc56)C[C@@]3(C(F)(F)F)C4)o2)CC1` [Compound 59, 4-((1S,5R)-1-(5-(1-methylpiperidin-4-yl)-1,3,4-oxadiazol-2-yl)-5-(trifluoromethyl)-3-azabicyclo[3.1.0]hexan-3-yl)pyrazolo[1,5-a]pyridine-7-carbonitrile] were, in that order, > 80% and < 100 nM.
The like results for `CN1CCC(c2nnc([C@]34CN(c5ccc(OC(F)(F)F)c6ncccc56)C[C@@]3(C(F)(F)F)C4)o2)CC1` [Compound 64, 2-(1-methylpiperidin-4-yl)-5-((1S,5R)-5-(trifluoromethyl)-3-(8-(trifluoromethoxy)quinolin-5-yl)-3-azabicyclo[3.1.0]hexan-1-yl)-1,3,4-oxadiazole] were, in that order, > 70% and < 100 nM.
With `CN1CCC(c2nnc([C@]34CN(c5ccc(C(F)(F)F)n6nccc56)C[C@@]3(C(F)(F)F)C4)o2)CC1` [Compound 87, 2-(1-methylpiperidin-4-yl)-5-((1S,5R)-5-(trifluoromethyl)-3-(7-(trifluoromethyl)pyrazolo[1,5-a]pyridin-4-yl)-3-azabicyclo[3.1.0]hexan-1-yl)-1,3,4-oxadiazole], the concentration for half-maximal inhibition (IC50) in assay [2] is < 100 nM.
Same read-out and setting: the figure for `CN1CCC(F)(c2nnc([C@]34CN(c5ccc(C#N)n6nccc56)C[C@@]3(C(F)(F)F)C4)o2)CC1` [Compound 90, 4-((1S,5R)-1-(5-(4-fluoro-1-methylpiperidin-4-yl)-1,3,4-oxadiazol-2-yl)-5-(trifluoromethyl)-3-azabicyclo[3.1.0]hexan-3-yl)pyrazolo[1,5-a]pyridine-7-carbonitrile] is < 100 nM.
Still for that read-out and setting: the value for `CN1CCC(c2nnc([C@]34CN(c5ccc(C#N)c6ncnn56)C[C@@]3(C(F)(F)F)C4)o2)CC1` [Compound 91, 5-((1S,5R)-1-(5-(1-methylpiperidin-4-yl)-1,3,4-oxadiazol-2-yl)-5-(trifluoromethyl)-3-azabicyclo[3.1.0]hexan-3-yl)-[1,2,4]triazolo[1,5-a]pyridine-8-carbonitrile] was < 100 nM; that for `CN1CCC(Oc2nnc([C@]34CN(c5ccc(C(F)(F)F)c6ncccc56)C[C@@]3(C(F)(F)F)C4)o2)CC1` [Compound 92, 2-((1-methylpiperidin-4-yl)oxy)-5-((1S,5R)-5-(trifluoromethyl)-3-(8-(trifluoromethyl)quinolin-5-yl)-3-azabicyclo[3.1.0]hexan-1-yl)-1,3,4-oxadiazole] was < 100 nM; that for `CN1CCC(Oc2nnc([C@]34CN(c5ccc(OC(F)(F)F)c6ncccc56)C[C@@]3(C(F)(F)F)C4)o2)CC1` [Compound 93, 2-((1-methylpiperidin-4-yl)oxy)-5-((1S,5R)-5-(trifluoromethyl)-3-(8-(trifluoromethoxy)quinolin-5-yl)-3-azabicyclo[3.1.0]hexan-1-yl)-1,3,4-oxadiazole] was < 1000 nM.
As for `CN1CCC(O)(c2nnc([C@]34CN(c5ccc(C(F)(F)F)c6ncccc56)C[C@@]3(C(F)(F)F)C4)o2)CC1` [Compound 94, 1-methyl-4-(5-((1S,5R)-5-(trifluoromethyl)-3-(8-(trifluoromethyl)quinolin-5-yl)-3-azabicyclo[3.1.0]hexan-1-yl)-1,3,4-oxadiazol-2-yl)piperidin-4-ol], the half-inhibitory concentration (IC50) in assay [2] was < 100 nM.
With `CN1CC(Cc2nnc([C@]34CN(c5ccc(C(F)(F)F)c6ncccc56)C[C@@]3(C(F)(F)F)C4)o2)C1` [Compound 95, 2-((1-methylazetidin-3-yl)methyl)-5-((1S,5R)-5-(trifluoromethyl)-3-(8-(trifluoromethyl)quinolin-5-yl)-3-azabicyclo[3.1.0]hexan-1-yl)-1,3,4-oxadiazole], the inhibition at 1 mg/kg in assay [1] was > 90%. Besides, the IC50 in assay [2] is < 100 nM.
Regarding `FC(F)(F)Oc1ccc(N2C[C@]3(c4nnc(C5(F)CCNCC5)o4)C[C@]3(C(F)(F)F)C2)c2cccnc12` [Compound 96, 2-(4-fluoropiperidin-4-yl)-5-((1S,5R)-3-(8-(trifluoromethoxy)quinolin-5-yl)-5-(trifluoromethyl)-3-azabicyclo[3.1.0]hexan-1-yl)-1,3,4-oxadiazole], the IC50 in assay [2] was < 100 nM.
As to `CN1CCC(Oc2nnc([C@]34CN(c5ccc(C#N)c6ncnn56)C[C@@]3(C(F)(F)F)C4)o2)CC1` [Compound 97, 5-((1S,5R)-1-(5-((1-methylpiperidin-4-yl)oxy)-1,3,4-oxadiazol-2-yl)-5-(trifluoromethyl)-3-azabicyclo[3.1.0]hexan-3-yl)-[1,2,4]triazolo[1,5-a]pyridine-8-carbonitrile], the inhibition at 1 mg/kg in assay [1] is > 90%. Also, in assay [2], the IC50 was < 100 nM.
